Assay results from patent US11464770B2, “Anticancer pharmaceutical composition” (NATIONAL CANCER CENTER, priority 2016, dated 2022).
Read-outs that look alike come from different tables or passages of the source.

Key:
[1] = system: breast cancer cell lines (e.g. MDA-MB-231, SK-BR-3, MDA-MB-468, HCC1954); test: Cell based assay, cell viability (CellTiter-Glo), breast cancer cell lines; conditions: 72 hours, CellTiter-Glo
Experimental: (§1) Commercially available bladder cancer, prostate cancer, lung cancer, breast cancer, blood cancer, pancreatic cancer, colorectal cancer, brain cancer, neuroblastoma, melanoma, liver cancer, cervical carcinoma, ovarian cancer, renal cancer, and papilloma cell lines were each treated with trypsin-EDTA and cultured, followed by being seeded in each well of a 96 well plate. After 24 hours of treatment at constant temperature, the respective cells were treated with the candidate compound so that a final concentration became 0 to 2 μM. The treated cells were additionally cultured for 72 hours, and cell viability was measured by using an ATP detection method (CellTiter-Glo® Luminescent Cell Viability Assay, Promega).

melanoma cell lines = test: Cell based assay, cell viability (CellTiter-Glo), melanoma cell lines; conditions: Homo sapiens; LOX-IMVI cell line
Experimental: as §1

[2] = Breast cancer cell line MDA-MB-231-L/DOX, read-out: IC50, MDA-MB-231-L/DOX
[3] = Homo sapiens, Breast cancer cell line BT-20, read-out: IC50, BT-20
[4] = Homo sapiens, Breast cancer cell line HCC1395, read-out: IC50, HCC1395
[5] = Homo sapiens, Breast cancer cell line HCC1954, read-out: IC50, HCC1954
[6] = Homo sapiens, Breast cancer cell line JIMT-1, read-out: IC50, JIMT-1
[7] = Homo sapiens, Breast cancer cell line MCF7, read-out: IC50, MCF7
[8] = Homo sapiens, Breast cancer cell line MDA-MB-231, read-out: IC50, MDA-MB-231
[9] = Homo sapiens, Breast cancer cell line MDA-MB-468, read-out: IC50, MDA-MB-468
[10] = Homo sapiens, Breast cancer cell line SK-BR-3, read-out: IC50, SK-BR-3

Measured: IC50

CC(=O)c1c([S+](C)[O-])[nH]c2c(Br)ccc(Cl)c2c1=O (stereo not shown) [Compound 1, 3-acetyl-8-bromo-5-chloro-2-(methylsulfinyl)quinolin-4(1H)-one]
1.09 µM: [1]; [10]
> 2 µM: [1]; [2] | [1]; [3] | [1]; [5] | [1]; [7] | [1]; [8] | [1]; [9]
> 10 µM: [1]; [4] | [1]; [6]
1.5 µM: melanoma cell lines

CSc1[nH]c2c(Br)ccc(Cl)c2c(=O)c1C(C)=O [Compound 2, 3-acetyl-8-bromo-5-chloro-2-(methylthio)quinolin-4(1H)-one]
> 2 µM: [1]; [2] | [1]; [3] | [1]; [5] | [1]; [7] | [1]; [8] | [1]; [9] | [1]; [10] | melanoma cell lines
> 10 µM: [1]; [4] | [1]; [6]

CC(=O)c1c(SCc2ccccc2)[nH]c2c(Br)ccc(Cl)c2c1=O [Compound 3, 3-acetyl-2-(benzylthio)-8-bromo-5-chloroquinolin-4(1H)-one]
> 2 µM: [1]; [2] | [1]; [3] | [1]; [5] | [1]; [7] | [1]; [8] | [1]; [9] | [1]; [10] | melanoma cell lines
> 10 µM: [1]; [4] | [1]; [6]

CC(=O)c1c([S+]([O-])Cc2ccccc2)nc2c(Br)ccc(Cl)c2c1O (stereo not shown) [Compound 4]
> 10 µM: [1]; [4] | [1]; [6]
1.09 µM: melanoma cell lines
> 2 µM: [1]; [3] | [1]; [5] | [1]; [7] | [1]; [8] | [1]; [9]
0.91 µM: [1]; [10]

CSc1c(C(C)=O)c(=O)c2c(Cl)ccc(Br)c2n1C [Compound 5, 3-acetyl-8-bromo-5-chloro-1-methyl-2-(methylthio)quinolin-4(1H)-one]
> 10 µM: [1]; [4] | [1]; [6]
> 2 µM: [1]; [2] | [1]; [3] | [1]; [5] | [1]; [7] | [1]; [8] | [1]; [9] | [1]; [10] | melanoma cell lines

CC(=O)c1c([S+](C)[O-])[nH]c2c(Cl)ccc(Cl)c2c1=O (stereo not shown) [Compound 6, 3-acetyl-5,8-dichloro-2-(methylsulfinyl)quinolin-4(1H)-one]
> 10 µM: [1]; [4] | [1]; [6]
1.12 µM: [1]; [10]
> 2 µM: [1]; [2] | [1]; [3] | [1]; [5] | [1]; [7] | [1]; [8] | [1]; [9]
1.35 µM: melanoma cell lines

CSc1c(C(C)=O)c(=O)c2cc(F)ccc2n1C [Compound 7, 3-acetyl-6-fluoro-1-methyl-2-(methylthio)quinolin-4(1H)-one]
> 10 µM: [1]; [4] | [1]; [6]
> 2 µM: [1]; [2] | [1]; [3] | [1]; [5] | [1]; [7] | [1]; [8] | [1]; [9] | [1]; [10] | melanoma cell lines

CSc1[nH]c2ccc(F)cc2c(=O)c1C(C)=O [Compound 8, 1-(6-fluoro-4-hydroxy-2-(methylthio)quinolin-3-yl)ethan-1-one]
> 10 µM: [1]; [4] | [1]; [6]
> 2 µM: [1]; [2] | [1]; [3] | [1]; [5] | [1]; [7] | [1]; [8] | [1]; [9] | [1]; [10] | melanoma cell lines

CC(=O)c1c([S+](C)[O-])n(C(=O)c2ccc(Br)cc2)c2c(Br)ccc(Cl)c2c1=O (stereo not shown) [Compound 9, 3-acetyl-8-bromo-1-(4-bromobenzoyl)-5-chloro-2-(methylsulfinyl)quinolin-4(1H)-one]
> 2 µM: [1]; [2] | [1]; [3] | [1]; [5] | [1]; [7] | [1]; [8] | [1]; [9]
0.85 µM: [1]; [10]
1.05 µM: melanoma cell lines
> 10 µM: [1]; [4] | [1]; [6]

CC(=O)c1c(SCc2ccc(Cl)cc2)[nH]c2c(Br)ccc(Cl)c2c1=O [Compound 10, 3-acetyl-8-bromo-5-chloro-2-((4-chlorobenzyl)thio)quinolin-4(1H)-one]
> 10 µM: [1]; [4] | [1]; [6]
> 2 µM: [1]; [2] | [1]; [3] | [1]; [5] | [1]; [7] | [1]; [8] | [1]; [9] | [1]; [10] | melanoma cell lines

CC(=O)c1c([S+]([O-])Cc2ccc(Cl)cc2)[nH]c2c(Br)ccc(Cl)c2c1=O (stereo not shown) [Compound 11, 3-acetyl-8-bromo-5-chloro-2-((4-chlorobenzyl)sulfinyl)quinolin-4(1H)-one]
> 10 µM: [1]; [4] | [1]; [6]
> 2 µM: [1]; [2] | [1]; [3] | [1]; [5] | [1]; [7] | [1]; [8] | [1]; [9] | [1]; [10] | melanoma cell lines

CC(=O)c1c(Sc2ccccc2)[nH]c2c(Br)ccc(Cl)c2c1=O [Compound 12, 3-acetyl-8-bromo-5-chloro-2-(phenylthio)quinolin-4(1H)-one]
> 10 µM: [1]; [4] | [1]; [6]
> 2 µM: [1]; [2] | [1]; [3] | [1]; [5] | [1]; [7] | [1]; [8] | [1]; [9] | [1]; [10] | melanoma cell lines

CC(=O)c1c([S+]([O-])c2ccccc2)[nH]c2c(Br)ccc(Cl)c2c1=O (stereo not shown) [Compound 13, 3-acetyl-8-bromo-5-chloro-2-(phenylsulfinyl)quinolin-4(1H)-one]
> 10 µM: [1]; [4] | [1]; [6]
> 2 µM: [1]; [2] | [1]; [3] | [1]; [5] | [1]; [7] | [1]; [8] | [1]; [9] | [1]; [10] | melanoma cell lines

COc1ccccc1Sc1[nH]c2c(Br)ccc(Cl)c2c(=O)c1C(C)=O [Compound 14, 3-acetyl-8-bromo-5-chloro-2-((2-methoxyphenyl)thio)quinolin-4(1H)-one]
> 10 µM: [1]; [4] | [1]; [6]
> 2 µM: [1]; [2] | [1]; [3] | [1]; [5] | [1]; [7] | [1]; [8] | [1]; [9] | [1]; [10] | melanoma cell lines

COc1ccccc1[S+]([O-])c1[nH]c2c(Br)ccc(Cl)c2c(=O)c1C(C)=O (stereo not shown) [Compound 15, 3-acetyl-8-bromo-5-chloro-2-((2-methoxyphenyl)sulfinyl)quinolin-4(1H)-one]
> 10 µM: [1]; [4] | [1]; [6]
1.68 µM: [1]; [10]
> 2 µM: [1]; [2] | [1]; [3] | [1]; [5] | [1]; [7] | [1]; [8] | [1]; [9] | melanoma cell lines

CC(=O)c1c(Sc2ccc(Br)cc2)[nH]c2c(Br)ccc(Cl)c2c1=O [Compound 16, 3-acetyl-8-bromo-2-((4-bromophenyl)thio)-5-chloroquinolin-4(1H)-one]
> 10 µM: [1]; [4] | [1]; [6]
> 2 µM: [1]; [2] | [1]; [3] | [1]; [5] | [1]; [7] | [1]; [8] | [1]; [9] | [1]; [10] | melanoma cell lines

CC(=O)c1c([S+]([O-])c2ccc(Br)cc2)[nH]c2c(Br)ccc(Cl)c2c1=O (stereo not shown) [Compound 17, 3-acetyl-8-bromo-2-((4-bromophenyl)sulfinyl)-5-chloroquinolin-4(1H)-one]
> 2 µM: [1]; [2] | [1]; [3] | [1]; [5] | [1]; [7] | [1]; [8] | [1]; [9] | [1]; [10] | melanoma cell lines
> 10 µM: [1]; [4] | [1]; [6]

CC(=O)c1c(SCc2cccc(F)c2)[nH]c2c(Br)ccc(Cl)c2c1=O [Compound 49, 3-acetyl-8-bromo-5-chloro-2-((3-fluorobenzyl)thio)quinolin-4(1H)-one]
> 2 µM: [1]; [2] | [1]; [3] | [1]; [5] | [1]; [7] | [1]; [8] | [1]; [9] | [1]; [10]
> 10 µM: [1]; [4] | [1]; [6]
